Source: ChEMBL document CHEMBL1159113, “Investigation of Beckett-Casy model 1: synthesis of novel 16,17-seco-naltrexone derivatives and their pharmacology” (Bioorg Med Chem Lett, 2010)

Columns and labels:
[1] = Displacement of [3H]NTI from delta opioid receptor in guinea pig forebrain; set-up: species or system Cavia porcellus
[2] = molecular target: Kappa-type opioid receptor (Cavia porcellus, UniProt P41144); assay: Displacement of [3H]U69,593 from kappa opioid receptor in guinea pig cerebellum; type: tissue-based
Sequence of Kappa-type opioid receptor (P41144 whole entry): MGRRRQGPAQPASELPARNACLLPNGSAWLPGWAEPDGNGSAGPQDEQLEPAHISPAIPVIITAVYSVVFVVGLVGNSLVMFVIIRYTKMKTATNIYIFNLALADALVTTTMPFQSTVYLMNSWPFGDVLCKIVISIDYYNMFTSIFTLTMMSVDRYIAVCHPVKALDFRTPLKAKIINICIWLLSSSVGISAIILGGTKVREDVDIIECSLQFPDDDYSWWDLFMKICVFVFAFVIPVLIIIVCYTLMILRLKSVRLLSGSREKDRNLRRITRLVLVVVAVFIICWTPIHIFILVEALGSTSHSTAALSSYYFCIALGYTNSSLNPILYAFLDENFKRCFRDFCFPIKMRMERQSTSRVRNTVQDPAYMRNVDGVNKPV

Mu-type opioid receptor = Mu-type opioid receptor (Cavia porcellus, UniProt P97266); assay: Displacement of [3H]DAMGO from mu opioid receptor in guinea pig forebrain
Sequence of Mu-type opioid receptor (P97266 whole entry): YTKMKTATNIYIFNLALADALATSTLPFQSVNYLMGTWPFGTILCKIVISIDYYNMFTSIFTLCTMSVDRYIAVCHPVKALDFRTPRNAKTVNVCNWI

SMILES	Ki [1]	Ki [2]	Ki (Mu-type opioid receptor)	IC50 [2]	IC50 [1]	IC50 (Mu-type opioid receptor)
CC[C@]12c3c4ccc(O)c3O[C@H]1C(=O)CC[C@@]2(O)[C@H](NCC1CC1)C4	0.0241 µM	0.275 µM	0.0263 µM	–	–	–
CN(CC1CC1)[C@@H]1Cc2ccc(O)c3c2[C@]24CCO[C@]12CCC(=O)[C@@H]4O3	0.0432 µM	–	0.024 µM	> 1 µM	–	–
CN(CC1CC1)C1Cc2ccc(O)c3c2[C@@]2(CCn4ccnn4)[C@@H](O3)C(=O)CC[C@@]12O (stereo partly specified)	–	–	–	> 1 µM	> 1 µM	> 1 µM
CN(CC1CC1)[C@@H]1Cc2ccc(O)c3c2[C@@]2(CCO3)CC(=O)CC[C@@]12O	–	–	–	> 1 µM	> 1 µM	> 1 µM
C=C[C@]12c3c4ccc(O)c3O[C@H]1C(=O)CC[C@@]2(O)[C@H](NCC1CC1)C4	0.00473 µM	0.193 µM	0.0086 µM	–	–	–
CC[C@]12c3c4ccc(O)c3O[C@H]1C(=O)CC[C@@]2(O)[C@H](N(C)CC1CC1)C4	0.0776 µM	–	–	> 1 µM	–	> 1 µM
C=C[C@]12c3c4ccc(O)c3O[C@H]1C(=O)CC[C@@]2(O)[C@H](N(C)CC1CC1)C4	0.0397 µM	0.2 µM	0.0264 µM	–	–	–
